Assay results reported in US12662491B2 (Redona Therapeutics, Inc., priority 2020, dated 2026).

Target: T1, Zcchc11 enzyme (Homo sapiens, UniProt Q5TAX3)
T1 construct: made in house; host or cells: HEK293 cells (Zcchc11); E. coli Rosetta II (LIN28A)
T1 sequence (Q5TAX3 212-1420): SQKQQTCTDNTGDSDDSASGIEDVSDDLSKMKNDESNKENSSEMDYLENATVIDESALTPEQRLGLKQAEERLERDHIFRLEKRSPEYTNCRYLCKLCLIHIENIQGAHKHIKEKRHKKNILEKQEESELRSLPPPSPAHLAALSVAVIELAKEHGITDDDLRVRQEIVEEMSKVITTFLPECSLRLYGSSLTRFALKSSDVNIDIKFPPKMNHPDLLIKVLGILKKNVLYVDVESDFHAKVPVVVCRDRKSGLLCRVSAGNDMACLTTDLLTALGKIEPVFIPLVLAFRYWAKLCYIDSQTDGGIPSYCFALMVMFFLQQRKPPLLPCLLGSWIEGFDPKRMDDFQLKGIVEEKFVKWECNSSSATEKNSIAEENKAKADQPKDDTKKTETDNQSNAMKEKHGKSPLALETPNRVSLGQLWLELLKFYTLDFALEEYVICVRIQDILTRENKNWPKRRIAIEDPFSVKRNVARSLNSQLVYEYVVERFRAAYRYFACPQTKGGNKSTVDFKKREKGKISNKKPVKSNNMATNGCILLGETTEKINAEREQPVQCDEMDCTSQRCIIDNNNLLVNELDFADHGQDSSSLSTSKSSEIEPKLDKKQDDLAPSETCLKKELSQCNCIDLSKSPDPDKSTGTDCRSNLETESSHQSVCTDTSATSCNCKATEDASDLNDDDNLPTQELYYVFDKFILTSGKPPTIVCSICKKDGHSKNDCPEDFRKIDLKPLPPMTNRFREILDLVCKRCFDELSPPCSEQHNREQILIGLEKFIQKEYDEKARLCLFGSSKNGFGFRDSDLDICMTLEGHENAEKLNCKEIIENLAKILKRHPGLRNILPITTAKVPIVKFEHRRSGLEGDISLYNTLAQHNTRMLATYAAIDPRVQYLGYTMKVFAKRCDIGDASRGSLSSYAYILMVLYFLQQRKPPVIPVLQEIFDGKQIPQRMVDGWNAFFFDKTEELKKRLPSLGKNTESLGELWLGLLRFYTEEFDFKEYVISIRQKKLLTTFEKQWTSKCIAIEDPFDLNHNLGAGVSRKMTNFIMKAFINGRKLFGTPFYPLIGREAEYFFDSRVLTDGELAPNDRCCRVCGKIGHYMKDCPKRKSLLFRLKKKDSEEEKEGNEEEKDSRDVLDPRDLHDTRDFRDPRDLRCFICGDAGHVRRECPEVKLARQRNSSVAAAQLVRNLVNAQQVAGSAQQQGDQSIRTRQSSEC
Assay: TUTase assay (Zcchc11 assay, Lin28a-dependent polyuridylation of pre-let-7)
Assay type: biochemical
Conditions: LIN28A 10 nM, Zcchc11 0.2 nM, 5′-fluorescein pre-let-7 miRNA 2 nM, UTP 5 uM, room temperature, 30 minutes pre-incubation; read-out: Potency Lin28a-dep Z11 IC50
Summary of the method: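 Polyuridylation measured as fluorescein loss when a rhodamine-labelled A20 probe anneals to U-tails added to fluorescein pre-let-7 (2 nM). Reaction: truncated Zcchc11 0.2 nM, E. coli-made LIN28A 10 nM, UTP 5 uM, HEPES pH 7.3, room temperature. Initial rates fitted to four-parameter IC50.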

IC50 [µM]	SMILES
≤ 1	Cc1cccnc1OC[C@H]1CCCN1c1cc2c(cc1C#N)c(=O)c(C(=O)O)cn2C1(C)CC1 [Example 35, 6-Cyano-1-(1-methylcyclopropyl)-7-[(2R)-2-{[(3-methylpyridin-2-yl)oxy]methyl}pyrrolidin-1-yl]-4-oxo-1,4-dihydroquinoline-3-carboxylic acid]
≤ 1	CN(C)C1CN(c2ccc(-n3cc(C(=O)O)c(=O)c4cc(F)c(N5C[C@H](c6cccnc6)C[C@@H]5COc5ncccc5Cl)cc43)cn2)C1 [Example 61, 7-[(2R)-2-[[(3-Chloropyridin-2-yl)oxy]methyl]-4-(pyridin-3-yl)pyrrolidin-1-yl]-1-[6-[3-(dimethylamino)azetidin-1-yl]pyridin-3-yl]-6-fluoro-4-oxoquinoline-3-carboxylic acid]
≤ 1	Cc1ccnn(C[C@H]2CCCN2c2cc3c(cc2F)c(=O)c(C(=O)O)cn3-c2ccc(O)cc2)c1=O [Example 23, (R)-6-fluoro-1-(4-hydroxyphenyl)-7-(2-((5-methyl-6-oxopyridazin-1(6H)-yl)methyl)pyrrolidin-1-yl)-4-oxo-1,4-dihydroquinoline-3-carboxylic acid]
> 50	CCc1cccnc1OC[C@H]1CCCN1c1cc2c(cc1F)c(=O)c(C(=O)O)cn2-c1ccccc1 [Example 6, (R)-7-(2-(((3-ethylpyridin-2-yl)oxy)methyl)pyrrolidin-1-yl)-6-fluoro-4-oxo-1-phenyl-1,4-dihydroquinoline-3-carboxylic acid]
≤ 1	Cc1cccnc1OC[C@H]1CCCN1c1c(F)cc2c(=O)c(C(=O)O)cn(-c3ccc(O)cc3F)c2c1F [Example 20, (R)-6,8-difluoro-1-(2-fluoro-4-hydroxyphenyl)-7-(2-(((3-methylpyridin-2-yl)oxy)methyl)pyrrolidin-1-yl)-4-oxo-1,4-dihydroquinoline-3-carboxylic acid]

Same assay, conditions: Lin28a-dependent Zcchc11 (Z11) TUTase activity; read-out: Potency Lin28a-dep Z11 IC50

IC50 [µM]	SMILES
≤ 1	Cc1ccc(Cl)c(OC[C@H]2C[C@H]3C[C@H]3N2c2cc3c(cc2F)c(=O)c(C(=O)O)cn3-c2ccc(N(C)C)nc2)n1 [Compound 309]
≤ 1	CO/N=C1\CCN(c2cc3c(cc2Cl)c(=O)c(C(=O)O)cn3-c2ccc(N3CC(N(C)C)C3)nc2)C1COc1nc(OC)ccc1Cl (centres unmarked) [Compound 233, (E)-6-chloro-7-(2-(((3-chloro-6-methoxy-pyridin-2-yl)oxy)methyl)-3-(methoxyimino)pyrrolidin-1-yl)-1-(6-(3-(dimethyl-amino)azetidin-1-yl)pyridin-3-yl)-4-oxo-1,4-dihydro-quinoline-3-carboxylic acid]
≤ 1	CN(C)C1CN(c2ccc(-n3cc(C(=O)O)c(=O)c4cc(C#N)c(N5CCC[C@@]5(C)COc5ncccc5F)cc43)cn2)C1 [Compound 285, (S)-6-cyano-1-(6-(3-(dimethyl-amino)azetidin-1-yl)pyridin-3-yl)-7-(2-(((3-fluoropyridin-2-yl)oxy)methyl)-2-methyl-pyrrolidin-1-yl)-4-oxo-1,4-dihydro-quinoline-3-carboxylic acid]
≤ 1	CN(C)CCn1cc(-n2cc(C(=O)O)c(=O)c3cc(C#N)c(N4CCC[C@@H]4COc4ncccc4Cl)cc32)cn1 [Compound 207]
≤ 1	CN(C)C1CN(c2ccc(-n3cc(C(=O)O)c(=O)c4cc(Cl)c(N5CCC[C@@H]5COc5nc6ncn(C)c6cc5Cl)cc43)cn2)C1 [Compound 273, (R)-6-chloro-7-(2-(((6-chloro-1-methyl-1H-imidazo [4,5-b]pyridin-5-yl)oxy)methyl)pyrrolidin-1-yl)-1-(6-(3-(dimethyl-amino)azetidin-1-yl)pyridin-3-yl)-4-oxo-1,4-dihydro-quinoline-3-carboxylic acid formic acid]
≤ 1	O=C(O)c1cn(-c2ccc(O)cc2)c2c(F)c(N3CCC[C@@H]3COc3ccccn3)c(F)cc2c1=O [Compound 134, (R)-6,8-difluoro-1-(4-hydroxy-phenyl)-4-oxo-7-(2-((pyridin-2-yloxy)methyl)pyrrolidin-1-yl)-1,4-dihydro-quinoline-3-carboxylic acid]
≤ 1	CN(C)C1CN(c2ccc(-n3cc(C(=O)O)c(=O)c4cc(Cl)c(N5C6CC6C[C@@H]5COc5nc(N)ccc5Cl)cc43)cn2)C1 (stereo partly drawn) [Compound 336, 7-[(3R)-3-{[(6-Amino-3-chloropyridin-2-yl)oxy]methyl}-2-azabicyclo [3.1.0]hexan-2-yl]-6-chloro-1-{6-[3-(dimethyl-amino)azetidin-1-yl]pyridin-3-yl}-4-oxoquinoline-3-carboxylic acid]
≤ 1	CN(C)C1CN(c2ccc(-n3cc(C(=O)O)c(=O)c4cc(C#N)c(N5CCC[C@]5(C)COc5ncccc5F)cc43)cn2)C1 [Compound 284, (R)-6-cyano-1-(6-(3-(dimethyl-amino)azetidin-1-yl)pyridin-3-yl)-7-(2-(((3-fluoropyridin-2-yl)oxy)methyl)-2-methyl-pyrrolidin-1-yl)-4-oxo-1,4-dihydro-quinoline-3-carboxylic acid]

Same assay, conditions: Lin28a-dependent Zcchc11 (Z11) TUTase assay; read-out: Potency Lin28a-dep Z11 IC50

IC50 [µM]	SMILES
1 to 10	Cc1cccnc1OC[C@H]1CCCN1c1cc2c(cc1Cl)c(=O)c(C(=O)O)cn2C1(C)COC1 [Example 456, (R)-6-chloro-1-(3-methyloxetan-3-yl)-7-(2-(((3-methylpyridin-2-yl)oxy)methyl)pyrrolidin-1-yl)-4-oxo-1,4-dihydroquinoline-3-carboxylic acid]
≤ 1	O=C(O)c1cn(-c2ccc(O)c(Cl)c2)c2cc(N3CCC[C@@H]3COc3ccccn3)c(Cl)cc2c1=O [Example 409, (R)-6-chloro-1-(3-chloro-4-hydroxyphenyl)-4-oxo-7-(2-((pyridin-2-yloxy)methyl)pyrrolidin-1-yl)-1,4-dihydroquinoline-3-carboxylic acid]
1 to 10	Cc1cccnc1OC[C@H]1CCCN1c1cc2c(cc1Cl)c(=O)c(C(=O)O)cn2C1(CO)CC1 [Example 454, (R)-6-chloro-1-(1-(hydroxymethyl)cyclopropyl)-7-(2-(((3-methyl-pyridin-2-yl)oxy)methyl)pyrrolidin-1-yl)-4-oxo-1,4-dihydroquinoline-3-carboxylic acid]
≤ 1	O=C(O)c1cn(-c2ccc3[nH]c(=O)[nH]c3c2)c2cc(N3CCC[C@@H]3COc3ccccn3)c(F)cc2c1=O [Example 441, (R)-6-fluoro-4-oxo-1-(2-oxo-2,3-dihydro-1H-benzo[d]imidazol-5-yl)-7-(2-((pyridin-2-yloxy)methyl)pyrrolidin-1-yl)-1,4-dihydroquinoline-3-carboxylic acid]
≤ 1	COc1ccc(Cl)c(OC[C@H]2CC(C)CN2c2cc3c(cc2Cl)c(=O)c(C(=O)O)cn3-c2ccc(N3CC(N(C)C)C3)nc2)n1 (stereo partly drawn) [Example 625, 6-chloro-7-((2R)-2-(((3-chloro-6-methoxypyridin-2-yl)oxy)methyl)-4-methylpyrrolidin-1-yl)-1-(6-(3-(dimethylamino)azetidin-1-yl)pyridin-3-yl)-4-oxo-1,4-dihydroquinoline-3-carboxylic acid]
≤ 1	COc1ccc(Cl)c(OC[C@H]2C[C@H](NC(C)=O)CN2c2cc3c(cc2Cl)c(=O)c(C(=O)O)cn3-c2ccc(N3CC(N(C)C)C3)nc2)n1 [Example 637, 6-chloro-7-[(2R)-2-{[(3-chloro-6-methoxypyridin-2-yl)oxy]methyl}-4-acetamido-pyrrolidin-1-yl]-1-{6-[3-(dimethylamino)azetidin-1-yl]pyridin-3-yl}-4-oxo-1,4-dihydroquinoline-3-carboxylic acid]
≤ 1	CN(C)C1CN(c2ccc(-n3cc(C(=O)O)c(=O)c4cc(C5CC5)c(N5CCC[C@@H]5COc5ncccc5Cl)cc43)cn2)C1 [Example 559, (R)-7-(2-(((3-chloropyridin-2-yl)oxy)methyl)pyrrolidin-1-yl)-6-cyclopropyl-1-(6-(3-(dimethylamino)azetidin-1-yl)pyridin-3-yl)-4-oxo-1,4-dihydroquinoline-3-carboxylic acid]
